From publication PMC7126659 (Bioorganic & Medicinal Chemistry Letters, 2007)

Columns and labels:
[1] = molecular target: T1, ACE2 (Homo sapiens, UniProt Q9BYF1); details: it has been reported; no reference given; cited from earlier work
[2] = molecular target: T1, ACE2; test: Directed screen of ACE2 versus a set of metalloprotease inhibitors; assay type: biochemical; details: directed screen of GlaxoSmithKline metalloprotease inhibitor set

T1 sequence (Q9BYF1 18-805): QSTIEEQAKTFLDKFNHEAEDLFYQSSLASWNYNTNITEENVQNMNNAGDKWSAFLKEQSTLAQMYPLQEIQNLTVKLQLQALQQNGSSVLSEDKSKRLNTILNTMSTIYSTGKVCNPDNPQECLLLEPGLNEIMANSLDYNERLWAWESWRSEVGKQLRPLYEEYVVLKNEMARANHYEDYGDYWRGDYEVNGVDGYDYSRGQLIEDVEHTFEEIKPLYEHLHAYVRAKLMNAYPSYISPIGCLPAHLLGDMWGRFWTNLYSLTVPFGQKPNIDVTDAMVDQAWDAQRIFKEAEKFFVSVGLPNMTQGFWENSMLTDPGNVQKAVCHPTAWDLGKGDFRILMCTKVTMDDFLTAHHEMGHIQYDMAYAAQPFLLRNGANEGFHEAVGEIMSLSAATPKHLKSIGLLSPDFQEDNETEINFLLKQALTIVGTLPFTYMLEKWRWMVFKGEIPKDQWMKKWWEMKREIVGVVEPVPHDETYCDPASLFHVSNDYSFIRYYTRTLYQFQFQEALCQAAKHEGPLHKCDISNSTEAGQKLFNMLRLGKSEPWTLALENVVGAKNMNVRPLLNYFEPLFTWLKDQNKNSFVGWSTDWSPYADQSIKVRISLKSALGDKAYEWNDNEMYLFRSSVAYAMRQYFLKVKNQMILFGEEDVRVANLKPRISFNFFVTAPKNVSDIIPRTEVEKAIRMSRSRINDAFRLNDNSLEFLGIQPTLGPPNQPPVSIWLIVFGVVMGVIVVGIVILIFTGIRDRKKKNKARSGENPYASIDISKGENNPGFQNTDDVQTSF

Row | activity in the ACE2 screen [2] | Compound | effect on ACE2 enzyme activity [1]
1 | inactive | C[C@H](CS)C(=O)N1CCC[C@H]1C(=O)O [captopril] | do not attenuate ACE2 enzyme activity
2 |  | NCCCC[C@H](N[C@@H](CCc1ccccc1)C(=O)O)C(=O)N1CCC[C@H]1C(=O)O [lisinopril] | do not attenuate ACE2 enzyme activity
